Data from patent publication US10745428B2, “Antiviral phosphodiamide prodrugs of tenofovir” (Merck Sharp & Dohme Corp., priority 2015, dated 2020).
Read-outs that look alike come from different tables or passages of the source.

Assays:
[1] = system: HIV-1 (H9/IIIB strain); experiment: Multiple round HIV-1 infection assay (Viking assay), HIV-1 replication in MT4-GFP cells; format: cell-based; details: MT4-GFP cells infected with HIV-1 H9/IIIB
Experimental: The antiviral activity of the tenofovir prodrugs of the Examples herein was assessed in an assay that measures the rate of replication of HIV in cell culture, termed the Viking assay (VIral KINetics in Green cells) and performed as follows. HIV-1 replication was monitored using MT4-gag-GFP clone D3 (hereafter designated MT4-GFP; GFP is green fluorescent protein), which are MT-4 cells modified to harbor a GFP reporter gene, the expression of which is dependent on the HIV-1 expressed proteins tat and rev; see Wang Y-J et al., 2010J Virological Methods 165:230-237. Productive infection of an MT4-GFP cell with HIV-1 results in GFP expression approximately 24 h post-infection. MT4-GFP cells were maintained at 37° C./5% CO2/90% relative humidity in RPMI 1640 supplemented with 10% fetal bovine serum, 100 U/ml penicillin/streptomycin, and 400 μg/ml G418 to maintain the reporter gene. For infections, MT4-GFP cells were placed in the same medium lacking G418 and infected overnight with HIV-1 (H9/IIIB strain) virus at an approximate multiplicity of infection of 0.01 in the same incubation conditions. Cells were then washed and re-suspended in either RPMI 1640 supplemented with 10% or 50% normal human serum (NHS) at 1.6×10^5 cells/mL (10% NHS or 50% NHS, respectively). Compound plates were prepared by dispensing compounds dissolved in DMSO into wells of 384 well poly-D-lysine-coated plates (0.2 μl/well) using an ECHO acoustic dispenser. Each compound was tested in a 10-point serial 3-fold dilution (typical final concentrations: 8.4 μM-0.42 nM). Controls included no inhibitor (DMSO only) and a combination of three antiviral agents (efavirenz, indinavir, and an integrase strand transfer inhibitor at final concentrations of 4 μM each). Cells were added (50 μL/well) to compound plates and the infected cells were maintained at 37′C/5% CO2/90% relative humidity.
Infected cells were quantified at two time points, ˜48 h and ˜72 h post-infection, by counting the number of green cells in each well using an Acumen eX3 scanner. The increase in the number of green cells over ˜24 h period gives the reproductive ratio, R0, which is typically 5-15 and has been shown experimentally to be in logarithmic phase (data not shown). R0 is calculated for each well, and IC50s determined by non-linear 4-parameter curve fitting.

[2] = Prodrug stability assay in bio-relevant media (FaSSIF with Pancreatin), GI Tract stability; format: in vitro ADME; details: HPLC peak area of prodrug at 5 h divided by area at 0 h; 0.5 mg/mL Pancreatin in FaSSIF, 37° C.
Experimental: The following assay was employed to evaluate the stability of the prodrugs in simulated gastrointestinal tract conditions. Preparation of fasted state simulated intestinal fluid (FaSSIF) using Phares SIF Powder was carried out according to protocols from Phare Drug Delivery AG (Baselland, Switzerland). For sample preparation, 10 μL stock solutions (10 mM) of prodrug substance in DMSO was added to 990 μL of 0.5 mg/mL Pancreatin solution (Fisher CAS#8049-47-6) in FaSSIF. Two samples were prepared for each compound. If the sample was a clear solution, it was directly analyzed by HPLC. If the sample was not clear, the sample was diluted with 100% ACN, maintained at 37° C. and observed 5 h later. If the sample was clear, HPLC analysis was directly performed. If the sample was still not clear, the sample was diluted with 100% ACN and assayed by HPLC. All the samples were vortexed for 3 min and observed before injection. For the diluted samples, the area is multiplied by a factor when the data is analyzed. The analysis was carried out with an Agilent 1100 series HPLC with autosampler. The column was usually a Poroshell 120 EC-C18, 4.6×50 mm, 2.7 μm. The flow rate was 1.8 mL/min, and the injection volume was 5 or 10 μL. UV detection was in the range 210-400 nm. The mobile phase consisted of solvent A (water plus 10 mM tetrabutylammonium bromide) and solvent B (acetonitrile) with a gradient of 90% solvent A at 0 min, changing to 95% solvent B over 6 min, maintaining for 1.5 min, then reverting to 90% solvent A over 1.6 min. The HPLC peak area of the prodrug at 5 h was divided by the HPLC peak area of the prodrug at 0 h, to generate the % claimed parent ratio, which is summarized in Table 2. for GI Tract stability.

[3] = 10% normal human serum, read-out: Viking, IC50 (10% NHS)
[4] = 50% normal human serum, read-out: Viking, IC50 (50% NHS)
[5] = Human immunodeficiency virus 1, IIIB, 10% normal human serum, read-out: Viking, IC50 (10% NHS)
[6] = Human immunodeficiency virus 1, IIIB, 50% normal human serum, read-out: Viking, IC50 (50% NHS)

| GI Tract stability [2] [%] | SMILES | IC50 [1, 3] [nM] | IC50 [1, 4] [nM] | IC50 [1, 5] [nM] | IC50 [1, 6] [nM] |
| --- | --- | --- | --- | --- | --- |
| 100 | CCCCCCOC(=O)C(C)(C)NP(=O)(CO[C@H](C)Cn1cnc2c(N)ncnc21)N[C@H](C)C(=O)OC(C)C (single isomer, unassigned) [Example 2A] | 15.9 | 78 | – | – |
| 94.2 | CCCCCCOC(=O)C(C)(C)NP(=O)(CO[C@H](C)Cn1cnc2c(N)ncnc21)N[C@H](C)C(=O)OC(C)C (single isomer, unassigned) [Example 2B] | 1.3 | 5.2 | – | – |
| 95.6 | CCCCOC(=O)[C@@H](C)NP(=O)(CO[C@H](C)Cn1cnc2c(N)ncnc21)NC(C)(C)C(=O)OC(C)C (single isomer, unassigned) [Example 3B] | 3.8 | 20.5 | – | – |
| 100 | CCCCCOC(=O)C(C)(C)NP(=O)(CO[C@H](C)Cn1cnc2c(N)ncnc21)N[C@H](C)C(=O)OCCCC (single isomer, unassigned) [Example 9A] | 6.1 | 19.8 | – | – |
| 73.9 | CCCCCOC(=O)C(C)(C)NP(=O)(CO[C@H](C)Cn1cnc2c(N)ncnc21)N[C@H](C)C(=O)OCCCC (single isomer, unassigned) [Example 9B] | 1 | 4.2 | – | – |
| 66.8 | CCCCCCOC(=O)C(C)(C)NP(=O)(CO[C@H](C)Cn1cnc2c(N)ncnc21)N[C@H](C)C(=O)OCC(C)C (single isomer, unassigned) [Example 10B] | 0.7 | 2 | – | – |
| 99.1 | CCCCCCOC(=O)[C@@H](C)NP(=O)(CO[C@H](C)Cn1cnc2c(N)ncnc21)NC(C)(C)C(=O)OCCCCCC (single isomer, unassigned) [Example 13A] | – | – | 7.2 | 40.4 |
| 47.2 | CCCCCCOC(=O)C(C)(C)NP(=O)(CO[C@H](C)Cn1cnc2c(N)ncnc21)N[C@H](C)C(=O)OC1CCCC1 (single isomer, unassigned) [Example 14B] | 0.6 | 2 | – | – |
| 97.8 | CCCCCOC(=O)[C@@H](C)NP(=O)(CO[C@H](C)Cn1cnc2c(N)ncnc21)NC(C)(C)C(=O)OCCCCC (single isomer, unassigned) [Example 16B] | 0.9 | 4.2 | – | – |
| 100 | CCCCCOC(=O)C(C)(C)NP(=O)(CO[C@H](C)Cn1cnc2c(N)ncnc21)N[C@H](C)C(=O)OC(C)C (single isomer, unassigned) [Example 17A] | 15.9 | 78 | – | – |
| 94.2 | CCCCCOC(=O)C(C)(C)NP(=O)(CO[C@H](C)Cn1cnc2c(N)ncnc21)N[C@H](C)C(=O)OC(C)C (single isomer, unassigned) [Example 17B] | 1.3 | 5.2 | – | – |
| 49.3 | CCCCCOC(=O)C(C)(C)NP(=O)(CO[C@H](C)Cn1cnc2c(N)ncnc21)N[C@H](C)C(=O)OC1CCC1 (single isomer, unassigned) [Example 19B] | 2.5 | 10.8 | – | – |
| 82.7 | CCCCCOC(=O)C(C)(C)NP(=O)(CO[C@H](C)Cn1cnc2c(N)ncnc21)N[C@H](C)C(=O)OC1CCCC1 (single isomer, unassigned) [Example 24B] | 0.9 | 3.9 | – | – |

Second part, the compound before the results:

| SMILES | GI Tract stability [2] [%] | IC50 [1, 3] [nM] | IC50 [1, 4] [nM] | IC50 [1, 5] [nM] | IC50 [1, 6] [nM] |
| --- | --- | --- | --- | --- | --- |
| CCCCCCOC(=O)C(C)(C)NP(=O)(CO[C@H](C)Cn1cnc2c(N)ncnc21)N[C@H](C)C(=O)OC1CCCCC1 (single isomer, unassigned) [Example 15B] | 51.2 | 0.7 | 2.1 | – | – |
| CC(C)OC(=O)C(C)(C)NP(=O)(CO[C@H](C)Cn1cnc2c(N)ncnc21)N[C@H](C)C(=O)OC1CCC1 (single isomer, unassigned) [Example 18B] | 97.4 | 11 | 25.8 | – | – |
| CC(C)COC(=O)C(C)(C)NP(=O)(CO[C@H](C)Cn1cnc2c(N)ncnc21)N[C@H](C)C(=O)OC1CCC1 (single isomer, unassigned) [Example 20A] | 98.1 | 5.9 | 17.4 | – | – |
| CC(C)COC(=O)C(C)(C)NP(=O)(CO[C@H](C)Cn1cnc2c(N)ncnc21)N[C@H](C)C(=O)OC1CCC1 (single isomer, unassigned) [Example 20B] | 71.0 | 1.7 | 5.9 | – | – |
| CCCOC(=O)C(C)(C)NP(=O)(CO[C@H](C)Cn1cnc2c(N)ncnc21)N[C@H](C)C(=O)OC1CCC1 (single isomer, unassigned) [Example 22A] | 98.2 | 11.6 | 50.9 | – | – |
| CCCOC(=O)C(C)(C)NP(=O)(CO[C@H](C)Cn1cnc2c(N)ncnc21)N[C@H](C)C(=O)OC1CCC1 (single isomer, unassigned) [Example 22B] | 72.6 | 4.4 | 15.4 | – | – |
| CCCCOC(=O)C(C)(C)NP(=O)(CO[C@H](C)Cn1cnc2c(N)ncnc21)N[C@H](C)C(=O)OC1CCC1 (single isomer, unassigned) [Example 23B] | 58.6 | 6 | 13.6 | – | – |
| CCCCCOC(=O)C(C)(C)NP(=O)(CO[C@H](C)Cn1cnc2c(N)ncnc21)N[C@H](C)C(=O)OC1CCCC1 (single isomer, unassigned) [Example 24A] | 97.8 | 3.2 | 30.6 | – | – |
| CCCCCOC(=O)[C@@H](C)N(C)P(=O)(CO[C@H](C)Cn1cnc2c(N)ncnc21)NC(C)(C)C(=O)OCCCCC (single isomer, unassigned) [Example 25B] | 94.4 | – | – | 3.6 | 9.6 |
| CCCCCOC(=O)[C@H]1CCCN1P(=O)(CO[C@H](C)Cn1cnc2c(N)ncnc21)NC(C)(C)C(=O)OCCCCC (single isomer, unassigned) [Example 26B] | 92.5 | 4.4 | 19.5 | – | – |
| C[C@H](Cn1cnc2c(N)ncnc21)OCP(=O)(N[C@H](C)C(=O)OC1CCCC1)NC(C)(C)C(=O)OC1CCCCC1 (single isomer, unassigned) [Example 27B] | 93.5 | 1.6 | 4.7 | – | – |
| C[C@H](Cn1cnc2c(N)ncnc21)OCP(=O)(N[C@H](C)C(=O)OC1CCCC1)NC(C)(C)C(=O)OC1CCC1 (single isomer, unassigned) [Example 28B] | 90.2 | 2.7 | 3.3 | – | – |
